In test [1] the test system is HEK293sieSTAT3(wt). As to the kind of experiment: drug sensitivity score (DSS), cytotoxicity CellTox Green (DSS (dimensionless)); higher = more cytotoxic; extreme values may be limits of the assay. As to conditions: 72 h; STAT3 variant: wild type. The procedure, abridged:
(§1)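 HEK293 cells bearing a STAT3-dependent luciferase reporter and overexpressing wild-type or mutant STAT3 were incubated with compounds at 5 concentrations in 10-fold steps for 72 hours at 37°C and 5% CO2. CellTox Green fluorescence and then CellTiter-Glo luminescence were measured, and values were normalised to negative and positive control wells. In Breeze, a drug sensitivity score was computed from the dose-response curve area.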

In test [2] the test system is HEK293sieSTAT3(Y640F). The test is described as above. As to conditions: 72 h; STAT3 variant: Y640F (constitutively active). The procedure, abridged: as §1
For test [3], the system named is HEK293sieSTAT3(wt). The experiment in a line: drug sensitivity score (DSS), viability CellTiter-Glo (DSS (dimensionless)); higher = more growth inhibition; extreme values may be limits of the assay. As to conditions: 72 h; STAT3 variant: wild type. In short, it runs like this: as §1
In general terms: In ATP-based viability assays light output follows the ATP content of the culture.

The test system of test [4] is HEK293sieSTAT3(Y640F). The description is as above. As to conditions: 72 h; STAT3 variant: Y640F (constitutively active). The procedure, abridged: as §1

Each structure is given as a SMILES string.

Consider `Cc1c(C(=O)Nc2ccc(N3C[C@@H](C)O[C@@H](C)C3)nc2)cccc1-c1ccc(OC(F)(F)F)cc1` [Sonidegib] (top concentration tested 10000 nM), for which the drug sensitivity score amounted to 0 in the test on HEK293sieSTAT3(wt) [1], 0 in the test with HEK293sieSTAT3(Y640F) [2], 3.16 in the test on HEK293sieSTAT3(wt) [3] and 1.71 in the test with HEK293sieSTAT3(Y640F) [4].

As to `C=CCN(/C=C1/C(=O)O[C@H](COC)[C@@]2(C)C1=C(O)C(=O)C1=C2[C@H](OC(C)=O)C[C@]2(C)C(=O)CC[C@@H]12)CC=C` [Sonolisib] (top concentration tested 10000 nM), the drug sensitivity score in the test with HEK293sieSTAT3(wt) [1] was 0; in the test with HEK293sieSTAT3(Y640F) [2], 2.34; with HEK293sieSTAT3(wt) [3], 0.33; with HEK293sieSTAT3(Y640F) [4], 1.67.

Consider `CNC(=O)c1cc(Oc2ccc(NC(=O)Nc3ccc(Cl)c(C(F)(F)F)c3)cc2)ccn1` [Sorafenib] (top concentration tested 1000 nM), for which the drug sensitivity score worked out at 0 in the test on HEK293sieSTAT3(wt) [1], 1.07 with HEK293sieSTAT3(Y640F) [2], 0.09 in the test on HEK293sieSTAT3(wt) [3] and 0 in the test with HEK293sieSTAT3(Y640F) [4].

`CN1CCN(c2nc(C3=C(c4c[nH]c5ccccc45)C(=O)NC3=O)c3ccccc3n2)CC1` [Sotrastaurin] (top concentration tested 10000 nM): the drug sensitivity score was 0.69 with HEK293sieSTAT3(wt) [1], 3 in the test with HEK293sieSTAT3(Y640F) [2], 5.78 with HEK293sieSTAT3(wt) [3] and 3.63 in the test with HEK293sieSTAT3(Y640F) [4].

Regarding `C=CC(=O)Nc1cccc(Nc2nc(Nc3ccc(OCCOC)cc3)ncc2F)c1` [Spebrutinib] (top concentration tested 1000 nM), the drug sensitivity score in the test on HEK293sieSTAT3(wt) [1] was 0; in the test with HEK293sieSTAT3(Y640F) [2] it was 0; with HEK293sieSTAT3(wt) [3], 0; in the test with HEK293sieSTAT3(Y640F) [4], 2.4.

Consider `O=[N+]([O-])c1ccc2c(c1)S(=O)(=O)C=C2` [Stattic] (top concentration tested 50000 nM), for which the drug sensitivity score amounted to 18.9 in the test on HEK293sieSTAT3(wt) [1], 16.9 with HEK293sieSTAT3(Y640F) [2], 17.2 in the test with HEK293sieSTAT3(wt) [3] and 17.2 with HEK293sieSTAT3(Y640F) [4].

For the compound `CC(C)n1cnc2c(NCCc3ccc(O)cc3)nc(-c3csc4ccccc34)nc21` [StemRegenin 1] (top concentration tested 10000 nM), the drug sensitivity score came to 5.48 with HEK293sieSTAT3(wt) [1], 0.52 with HEK293sieSTAT3(Y640F) [2], 5.04 in the test with HEK293sieSTAT3(wt) [3] and 3.04 with HEK293sieSTAT3(Y640F) [4].

For `CN(N=O)C(=O)N[C@@H](C=O)[C@@H](O)[C@H](O)[C@H](O)CO` [Streptozocin] (top concentration tested 10000 nM), the drug sensitivity score in the test with HEK293sieSTAT3(wt) [1] is 0; in the test with HEK293sieSTAT3(Y640F) [2] it was 0; in the test on HEK293sieSTAT3(wt) [3], 1.93; in the test with HEK293sieSTAT3(Y640F) [4], 0.

On to `CCN(CC)CCNC(=O)c1c(C)[nH]c(/C=C2\C(=O)Nc3ccc(F)cc32)c1C` [Sunitinib] (top concentration tested 1000 nM), for which the drug sensitivity score came to 0 in the test on HEK293sieSTAT3(wt) [1], 0 with HEK293sieSTAT3(Y640F) [2], 0 in the test with HEK293sieSTAT3(wt) [3] and 0.02 in the test with HEK293sieSTAT3(Y640F) [4].

For the compound `CC(C)(O)CC(=O)NCCn1ccc2ncnc(Nc3ccc(Oc4cccc(C(F)(F)F)c4)c(Cl)c3)c21` [TAK-285] (top concentration tested 2500 nM), the drug sensitivity score in the test on HEK293sieSTAT3(wt) [1], in the test on HEK293sieSTAT3(Y640F) [2], in the test with HEK293sieSTAT3(wt) [3] and with HEK293sieSTAT3(Y640F) [4] was 0 in each case.

As for `N#Cc1c(Oc2ccc(F)c(NC(=O)Cc3cccc(C(F)(F)F)c3)c2)ccc2nc(NC(=O)C3CC3)sc12` [TAK-632] (top concentration tested 10000 nM), the drug sensitivity score in the test with HEK293sieSTAT3(wt) [1] turned out to be 0; in the test on HEK293sieSTAT3(Y640F) [2], 0; in the test on HEK293sieSTAT3(wt) [3] it was 8.51; in the test with HEK293sieSTAT3(Y640F) [4], 11.1.

As to `CCc1nc(-c2cccc(C)c2)c(-c2ccnc(NC(=O)c3ccccc3)c2)s1` [TAK-715] (top concentration tested 10000 nM), the drug sensitivity score with HEK293sieSTAT3(wt) [1] came to 0; with HEK293sieSTAT3(Y640F) [2] it was 0; in the test on HEK293sieSTAT3(wt) [3], 4.5; with HEK293sieSTAT3(Y640F) [4], 4.68.

As to `Cn1c(=O)c(F)c(Nc2ccc(I)cc2F)c2c(=O)n(C[C@@H](O)CO)cnc21` [TAK-733] (top concentration tested 1000 nM), the drug sensitivity score with HEK293sieSTAT3(wt) [1] was determined as 0; in the test on HEK293sieSTAT3(Y640F) [2], 0; in the test on HEK293sieSTAT3(wt) [3], 0; in the test with HEK293sieSTAT3(Y640F) [4], 1.47.

As for `CCS(=O)(=O)c1cccc(-c2cc(C(=O)NC3CCN(C)CC3)c(C)c3[nH]c4ncc(C)cc4c23)c1` [TAK-901] (top concentration tested 1000 nM), the drug sensitivity score in the test on HEK293sieSTAT3(wt) [1] came to 2.83; with HEK293sieSTAT3(Y640F) [2], 0; in the test on HEK293sieSTAT3(wt) [3], 4.52; in the test with HEK293sieSTAT3(Y640F) [4], 4.54.

For the compound `COc1cc(C(=O)NC2CCN(C)CC2)c(F)cc1Nc1ncc2c(n1)N(C1CCCC1)CC(F)(F)C(=O)N2C` [TAK-960] (top concentration tested 2500 nM), the drug sensitivity score was 0 in the test on HEK293sieSTAT3(wt) [1], 0.89 in the test on HEK293sieSTAT3(Y640F) [2], 0 with HEK293sieSTAT3(wt) [3] and 0 in the test with HEK293sieSTAT3(Y640F) [4].

For the compound `Cc1cccc(-c2[nH]c(CNc3ccccc3F)nc2-c2ccc3ncnn3c2)n1` [TEW-7197] (top concentration tested 2500 nM), the drug sensitivity score turned out to be 0.27 with HEK293sieSTAT3(wt) [1], 0 with HEK293sieSTAT3(Y640F) [2], 1.04 in the test on HEK293sieSTAT3(wt) [3] and 2.53 in the test with HEK293sieSTAT3(Y640F) [4].

As to `Nc1nc(N)c2nc(-c3cccc(O)c3)c(-c3cccc(O)c3)nc2n1` [TG100-115] (top concentration tested 10000 nM), the drug sensitivity score in the test on HEK293sieSTAT3(wt) [1] is 0; in the test on HEK293sieSTAT3(Y640F) [2], 0; in the test with HEK293sieSTAT3(wt) [3], 0; in the test with HEK293sieSTAT3(Y640F) [4] it was 0.15.

`Cc1cc(C(C)Nc2ccccc2)c2nc(N3CCOCC3)cc(=O)n2c1` (stereo not drawn) [TGX-221] (top concentration tested 10000 nM): the drug sensitivity score in the test with HEK293sieSTAT3(wt) [1] amounted to 0; with HEK293sieSTAT3(Y640F) [2] it was 0; with HEK293sieSTAT3(wt) [3], 0; in the test with HEK293sieSTAT3(Y640F) [4], 0.57.

In the case of `Nc1nc(NC2CC2)cc(-c2cccc(Cl)c2Cl)n1` [TH588] (top concentration tested 25000 nM), the drug sensitivity score in the test with HEK293sieSTAT3(wt) [1] was 5.04; in the test on HEK293sieSTAT3(Y640F) [2], 2.04; in the test on HEK293sieSTAT3(wt) [3], 6.38; in the test on HEK293sieSTAT3(Y640F) [4] it was 3.43.

`NC(=O)Nc1sc(-c2ccc(F)cc2)cc1C(N)=O` [TPCA-1] (top concentration tested 25000 nM): the drug sensitivity score in the test on HEK293sieSTAT3(wt) [1] amounted to 5.56; with HEK293sieSTAT3(Y640F) [2] it was 0.96; with HEK293sieSTAT3(wt) [3], 7.61; in the test with HEK293sieSTAT3(Y640F) [4], 5.84.

Consider `Clc1ccccc1C(c1ccccc1)(c1ccccc1)n1cccn1` [TRAM-34] (top concentration tested 1000 nM), for which the drug sensitivity score in the test with HEK293sieSTAT3(wt) [1] was 0; with HEK293sieSTAT3(Y640F) [2], 0; in the test on HEK293sieSTAT3(wt) [3] it was 1.55; in the test on HEK293sieSTAT3(Y640F) [4], 1.41.

Consider `CC(=O)Nc1ccc(C(=O)Nc2ccccc2N)cc1` [Tacedinaline] (top concentration tested 1000 nM), for which the drug sensitivity score in the test on HEK293sieSTAT3(wt) [1] was 0; in the test on HEK293sieSTAT3(Y640F) [2], 0; with HEK293sieSTAT3(wt) [3] it was 2.27; with HEK293sieSTAT3(Y640F) [4], 4.27.

Source of the values: the supplement of paper PMC7108870.
